Test results taken from PubChem BioAssay AID214 (DTP/NCI, 2004).
“And” between values parts separate entries of the source, which are not always exact repeats. Equal values may be shown once. Results filed as inconclusive are left out.

System: B6C3F1 mice, colon carcinoma 38 s.c., T/C
Experiment: NCI In Vivo Anticancer Drug Screen. Data for tumor model Colon Carcinoma 38 (subcutaneous) in B6C3F1 mice
Settings: higher = larger tumour
Description: The antitumor activity of compounds was measured in mice bearing transplantable tumors. Survival or tumor size were measured and the results are expressed as the measurement made in the treated group (T) divided by the measurement made in the vehicle treated control group (C). The tumor model used in this assay is Colon Carcinoma 38 (subcutaneous) in B6C3F1 mice

[1] = endpoint: median tumor weight (est.), dose: 6.25 mg/kg/injection, schedule: Q07DX002 (ip), vehicle: saline
[2] = endpoint: median tumor weight (est.), dose: 12.5 mg/kg/injection, schedule: Q07DX002 (ip), vehicle: saline
[3] = endpoint: median tumor weight (est.), dose: 25.0 mg/kg/injection, schedule: Q07DX002 (ip), vehicle: saline
[4] = endpoint: median tumor weight (est.), dose: 50.0 mg/kg/injection, schedule: Q07DX002 (ip), vehicle: saline
[5] = endpoint: median tumor weight (est.), dose: 100.0 mg/kg/injection, schedule: Q07DX002 (ip), vehicle: saline

Structure (SMILES): OCC1OC(n2cnc3c(=S)nc[nH]c32)C(O)C1O (stereo not drawn)
- T/C (endpoint: median tumor weight (est.), dose: 250.0 mg/kg/injection, schedule: Q07DX002 (ip), vehicle: suspension in saline): 74 % of control
- T/C (endpoint: median tumor weight (est.), dose: 500.0 mg/kg/injection, schedule: Q07DX002 (ip), vehicle: suspension in saline): 31 % of control
- T/C (endpoint: median tumor weight (est.), dose: 1000.0 mg/kg/injection, schedule: Q07DX002 (ip), vehicle: suspension in saline): 41 % of control

Structure (SMILES): O=NN(CCF)C(=O)NC1CCCCC1
- T/C (endpoint: median tumor weight (est.), dose: 6.25 mg/kg/injection, schedule: Q07DX002 (ip), vehicle: Klucel (hydroxypropylcellulose) (HPC)): 115 % of control
- T/C (endpoint: median tumor weight (est.), dose: 25.0 mg/kg/injection, schedule: Q07DX002 (ip), vehicle: Klucel (hydroxypropylcellulose) (HPC)): 77 % of control

Structure (SMILES): C(=N/NC1=NCCN1)/c1c2ccccc2c(/C=N\NC2=NCCN2)c2ccccc12
- T/C [1]: 100 % of control
- T/C [2]: 55 % of control
- T/C [3]: 112 % of control
- T/C [4]: 81 % of control
- T/C [5]: 36 % of control

Structure (SMILES): [Na+]
- T/C (endpoint: median tumor weight (est.), dose: 50.0 mg/kg/injection, schedule: Q07DX002 (ip), vehicle: water): 100 % of control
- T/C (endpoint: median tumor weight (est.), dose: 100.0 mg/kg/injection, schedule: Q07DX002 (ip), vehicle: water): 57 % of control
- T/C (endpoint: median tumor weight (est.), dose: 200.0 mg/kg/injection, schedule: Q07DX002 (ip), vehicle: water): 68 % of control
- T/C (endpoint: median tumor weight (est.), dose: 400.0 mg/kg/injection, schedule: Q07DX002 (ip), vehicle: water): 58 % of control
- T/C (endpoint: median tumor weight (est.), dose: 800.0 mg/kg/injection, schedule: Q07DX002 (ip), vehicle: water): 63 % of control

Structure (SMILES): S=P(N1CC1)(N1CC1)N1CC1
- T/C (endpoint: median tumor weight (est.), dose: 3.0 mg/kg/injection, schedule: Q07DX003 (ip), vehicle: saline): 58 % of control
- T/C (endpoint: median tumor weight (est.), dose: 6.0 mg/kg/injection, schedule: Q07DX003 (ip), vehicle: saline): 57 % of control
- T/C (endpoint: median tumor weight (est.), dose: 12.0 mg/kg/injection, schedule: Q07DX003 (ip), vehicle: saline): 23 % of control

Structure (SMILES): CCn1cnc2c(=S)nc[nH]c21
- T/C [4]: 85 % of control
- T/C (endpoint: median tumor weight (est.), dose: 50.0 mg/kg/injection, schedule: Q07DX002 (ip), vehicle: suspension in saline): 92 % of control
- T/C [5]: 73 % of control
- T/C (endpoint: median tumor weight (est.), dose: 100.0 mg/kg/injection, schedule: Q07DX002 (ip), vehicle: suspension in saline): 58 % of control
- T/C (endpoint: median tumor weight (est.), dose: 200.0 mg/kg/injection, schedule: Q07DX002 (ip), vehicle: saline): 55 % of control
- T/C (endpoint: median tumor weight (est.), dose: 200.0 mg/kg/injection, schedule: Q07DX002 (ip), vehicle: suspension in saline): 16 % of control
- T/C (endpoint: median tumor weight (est.), dose: 400.0 mg/kg/injection, schedule: Q07DX002 (ip), vehicle: saline): 1 % of control

Structure (SMILES): Cc1cc(N/N=C/c2ccccn2)nc2ccccc12
- T/C (endpoint: median tumor weight (est.), dose: 50.0 mg/kg/injection, schedule: Q07DX002 (ip), vehicle: Klucel (hydroxypropylcellulose) (HPC)): 65 % of control
- T/C (endpoint: median tumor weight (est.), dose: 100.0 mg/kg/injection, schedule: Q07DX002 (ip), vehicle: Klucel (hydroxypropylcellulose) (HPC)): 90 % of control
- T/C (endpoint: median tumor weight (est.), dose: 200.0 mg/kg/injection, schedule: Q07DX002 (ip), vehicle: Klucel (hydroxypropylcellulose) (HPC)): 74 % of control

Structure (SMILES): O=c1n(CC2CO2)c(=O)n(CC2CO2)n1CC1CO1 (stereo not drawn)
- T/C [1]: 72 % of control
- T/C [2]: 67 % of control
- T/C [3]: 87 % of control
- T/C [4]: 31 % of control

Structure (SMILES): Nc1n[nH]c2ccccc12
- T/C (endpoint: median tumor weight (est.), dose: 50.0 mg/kg/injection, schedule: Q07DX002 (ip), vehicle: acid diluted with saline): 105 % of control
- T/C (endpoint: median tumor weight (est.), dose: 100.0 mg/kg/injection, schedule: Q07DX002 (ip), vehicle: acid diluted with saline): 112 % of control
- T/C (endpoint: median tumor weight (est.), dose: 200.0 mg/kg/injection, schedule: Q07DX002 (ip), vehicle: acid diluted with saline): 84 % of control
- T/C (endpoint: median tumor weight (est.), dose: 400.0 mg/kg/injection, schedule: Q07DX002 (ip), vehicle: acid diluted with saline): 59 % of control
- T/C (endpoint: median tumor weight (est.), dose: 800.0 mg/kg/injection, schedule: Q07DX002 (ip), vehicle: acid diluted with saline): 74 % of control

Structure (SMILES): NC(=O)C1=CC2C3C=CC2(O)C(=O)OC3O1 (stereo not drawn)
- T/C (endpoint: median tumor weight (est.), dose: 7.5 mg/kg/injection, schedule: Q07DX002 (ip), vehicle: Klucel (hydroxypropylcellulose) (HPC)): 73 % of control
- T/C (endpoint: median tumor weight (est.), dose: 15.0 mg/kg/injection, schedule: Q07DX002 (ip), vehicle: Klucel (hydroxypropylcellulose) (HPC)): 86 % of control
- T/C (endpoint: median tumor weight (est.), dose: 30.0 mg/kg/injection, schedule: Q07DX002 (ip), vehicle: Klucel (hydroxypropylcellulose) (HPC)): 112 % of control

Structure (SMILES): CCCCNc1ccc2nnc(C)n2n1
- T/C (endpoint: median tumor weight (est.), dose: 50.0 mg/kg/injection, schedule: Q07DX002 (ip), vehicle: DMSO): 98 % of control
- T/C (endpoint: median tumor weight (est.), dose: 200.0 mg/kg/injection, schedule: Q07DX002 (ip), vehicle: DMSO): 114 % of control

Structure (SMILES): O=P1(NCCCl)OCCCN1CCCl (stereo not drawn)
- T/C (endpoint: median tumor weight (est.), dose: 30.0 mg/kg/injection, schedule: Q01DX006 (ip), vehicle: saline): 61 % of control

Structure (SMILES): Cc1ccoc1
- T/C (endpoint: median tumor weight (est.), dose: 16.8 mg/kg/injection, schedule: Q03HX006 (ip), vehicle: saline with Tween-80): 75 % of control
- T/C (endpoint: median tumor weight (est.), dose: 33.33 mg/kg/injection, schedule: Q03HX006 (ip), vehicle: saline with Tween-80): 109 % of control
- T/C (endpoint: median tumor weight (est.), dose: 66.66 mg/kg/injection, schedule: Q03HX006 (ip), vehicle: saline with Tween-80): 114 % of control
- T/C (endpoint: median tumor weight (est.), dose: 133.33 mg/kg/injection, schedule: Q03HX006 (ip), vehicle: saline with Tween-80): 108 % of control

Structure (SMILES): O=c1[nH]cc(F)c(=O)[nH]1
- T/C (endpoint: median tumor weight (est.), dose: 8.75 mg/kg/injection, schedule: Q07DX002 (ip), vehicle: saline): 59 % of control
- T/C (endpoint: median tumor weight (est.), dose: 24.0 mg/kg/injection, schedule: Q01DX006 (ip), vehicle: saline): 9 % of control
- T/C (endpoint: median tumor weight (est.), dose: 36.0 mg/kg/injection, schedule: Q01DX006 (ip), vehicle: saline): 7 % of control
- T/C (endpoint: optimum tumor weight change, dose: 35.0 mg/kg/injection, schedule: Q07DX002 (ip), vehicle: saline): 48 % of control
- T/C (endpoint: optimum tumor weight change, dose: 70.0 mg/kg/injection, schedule: Q07DX002 (ip), vehicle: saline): 46 % of control
- T/C (endpoint: optimum tumor weight change, dose: 140.0 mg/kg/injection, schedule: Q07DX002 (ip), vehicle: saline): 45 % of control

Structure (SMILES): CCCCCCCCCCCCCCCCCCOCC(COP(=O)([O-])OCC[N+](C)(C)C)OC (stereo not drawn)
- T/C [2]: 122 % of control
- T/C [3]: 119 % of control
- T/C [4]: 89 % of control
- T/C [5]: 73 % of control

Structure (SMILES): Cc1cc(=O)c2cccc(CC(=O)O)c2o1
- T/C (endpoint: median tumor weight (est.), dose: 400.0 mg/kg/injection, schedule: Q07DX002 (ip), vehicle: Klucel (hydroxypropylcellulose) (HPC)): 117 % of control

Structure (SMILES): O.O.[NH-]C1CCCCC1[NH-].[Pt+2] (stereo not drawn)
- T/C (endpoint: median tumor weight (est.), dose: 10.0 mg/kg/injection, schedule: Q07DX002 (ip), vehicle: dextrose): 72 % of control
- T/C (endpoint: median tumor weight (est.), dose: 20.0 mg/kg/injection, schedule: Q07DX002 (ip), vehicle: dextrose): 60 % of control
- T/C (endpoint: median tumor weight (est.), dose: 40.0 mg/kg/injection, schedule: Q07DX002 (ip), vehicle: dextrose): 29 % of control
- T/C (endpoint: median tumor weight (est.), dose: 80.0 mg/kg/injection, schedule: Q07DX002 (ip), vehicle: dextrose): 16 % of control and 17 % of control

Structure (SMILES): CO[C@@]12[C@H](COC(N)=O)C3=C(C(=O)C(C)=C(N)C3=O)N1C[C@@H]1N[C@@H]12
- T/C (endpoint: median tumor weight (est.), dose: 0.5 mg/kg/injection, schedule: Q07DX002 (ip), vehicle: saline): 77 % of control
- T/C (endpoint: median tumor weight (est.), dose: 4.0 mg/kg/injection, schedule: Q07DX002 (ip), vehicle: saline): 18 % of control and 19 % of control

Structure (SMILES): CC(C)CCC(=O)c1ccoc1
- T/C (endpoint: median tumor weight (est.), dose: 0.25 mg/kg/injection, schedule: Q03HX006 (ip), vehicle: saline with Tween-80): 56 % of control
- T/C (endpoint: median tumor weight (est.), dose: 0.5 mg/kg/injection, schedule: Q03HX006 (ip), vehicle: saline with Tween-80): 56 % of control
- T/C (endpoint: median tumor weight (est.), dose: 1.0 mg/kg/injection, schedule: Q03HX006 (ip), vehicle: saline with Tween-80): 81 % of control
- T/C (endpoint: median tumor weight (est.), dose: 2.0 mg/kg/injection, schedule: Q03HX006 (ip), vehicle: saline with Tween-80): 87 % of control
